Measurements reported in paper PMC7360964, “Auto‐inhibition of Mif2/CENP‐C ensures centromere‐dependent kinetochore assembly in budding yeast” (The EMBO Journal, 2020).

How the values were obtained:
[1] = test system: budding yeast; conditions: ref Hornung et al, 2014; cited from earlier work
Description: Figure 1 Ame1 and Mif2 are Mtw1c receptors that promote outer kinetochore assembly Left panel: Comparison of kinetochore assembly plans. Generally, inner kinetochores are represented by the […] centromere‐associated network (CCAN) of which Ame1 and Mif2 are the only essential subunits in S. cerevisiae. Right panel: Among other functions, Ame1 and Mif2 both act as receptors for the outer kinetochore component Mtw1c using short binding motifs at their N‐termini. An Ame1ΔN is lethal, while a Mif2ΔN mutant is viable. Two different scenarios for Mtw1c‐receptor configurations are indicated.

[2] = test system: Mtw1‐GFP kinetochores; assay: Kinetochore microscopy (Mtw1-GFP, Spc42-mCherry) in Mif2-overexpressing cells; format: cell-based, budding yeast; conditions: large-budded cells, galactose, 100 cells per strain, 2 independent experiments
Method: Figure 8 Auto‐inhibition of Mif2 is crucial for chromosome segregation and cell viability • Phenotypic analysis of Mif2 mutants using a galactose‐inducible overexpression system. Strains harboring the indicated Mif2 expression constructs on pESC plasmids were plated in serial dilution on doHIS‐glucose or doHIS‐raffinose/galactose plates and incubated at 30°C. • Serial dilution assay of chromosomally integrated Mif2 variants under the control of the pGAL promoter. Strains were plated on YEP‐glucose and YEP‐raffinose/galactose plates and incubated at 25°C. • Analysis of chromosome segregation in strains from (B). Distribution of fluorescently labeled chromosome III was analyzed in large‐budded cells 16 h after switching the medium to galactose. Scale bar represents 2 μm. • Microscopic analysis of kinetochores in Mif2‐overexpressing cells visualizing Mtw1‐GFP and Spc42‐mCherry. Images of representative large‐budded cells after 16 h in galactose are shown. One kinetochore cluster is enlarged in the white box for each strain. Scale bar represents 5 μm. […] Only large‐budded cells were included in the analysis. • Quantification of (D) in which large‐budded cells were classified according to their Mtw1‐GFP signal into the four indicated groups. A total of 100 cells were quantified for every strain. Mean values of the three indicated groups were calculated and plotted in a bar chart. […]

[3] = test system: Mif2‐FRB strains; assay: Anchor-away growth assay, Mif2 alleles; format: cell-based, budding yeast; conditions: rapamycin
[4] = test system: yeast growth; assay: Galactose-inducible overexpression growth assay (serial dilution); format: cell-based, budding yeast; conditions: two-micron pESC plasmid, 30°C
Description: What is the consequence of expressing Mif2^Ame1‐N swap in cells? […] To assess this effect in a more systematic manner, we expressed Mif2‐wt, Mif2‐ΔN, or Mif2^Ame1‐N swap under the control of a galactose‐inducible promoter in an otherwise wild‐type background. […] To further analyze the toxic effect of Mif2^Ame1‐N swap in cells, we stably integrated the different Mif2 versions under the control of the GAL10 promoter at the URA3 locus and again analyzed growth on plates. We included an additional strain in which Mif2 swap was mutated so that it cannot bind Mtw1c (R10E mutation in the RxxG motif). […]
Figure 8 Auto‐inhibition of Mif2 is crucial for chromosome segregation and cell viability • Phenotypic analysis of Mif2 mutants using a galactose‐inducible overexpression system. […] Distribution of fluorescently labeled chromosome III was analyzed in large‐budded cells 16 h after switching the medium to galactose. […] Only large‐budded cells were included in the analysis. • Quantification of (D) in which large‐budded cells were classified according to their Mtw1‐GFP signal into the four indicated groups. A total of 100 cells were quantified for every strain. Mean values of the three indicated groups were calculated and plotted in a bar chart. […]

[5] = test system: Mtw1‐Nnf1 complex (MN); assay: Flag pulldown of MN by Mif2 variants; format: binding, budding yeast; conditions: bait 1 μM, MN 3 μM; Coomassie or Western blot against His-tag on Nnf1
Description: (§1) If intramolecular interactions between the Mif2 N‐terminus and other parts of the molecule limit the ability to bind MN, then removing this auto‐inhibitory domain should increase the affinity for MN. […] We conclude that apart from residues in its N‐terminus, also residues in the signature motif and AT‐hook of Mif2 are responsible for the ability to adopt an auto‐inhibited conformation.
(§2) Figure 6 Mif2 auto‐inhibition depends on its Cse4 and DNA‐binding motifs • Schematic introduction of Mif2wt and Mif2‐ΔsigAT in which its Cse4 and DNA‐binding motifs have been removed. […]
(§3) The GST pulldown experiment was performed using BSA‐preblocked GSH Sepharose beads. […] Beads were washed twice in pulldown buffer, before Laemmli sample buffer was added to the beads (GST pulldown) or proteins were eluted in pulldown buffer supplemented with 1 mg/ml Flag peptide before addition of Laemmli sample buffer (Flag pulldown) and samples were analyzed on a Coomassie Brilliant Blue‐stained SDS–PAGE gel or Western blotting. […] Elution of proteins was monitored at 280 nm. 100 μl fractions were collected and analyzed by SDS–PAGE and Coomassie Brilliant Blue staining or Western blotting. […] After several washes with lysis buffer, proteins were eluted with 0.2 mg/ml 3xFlag peptide in lysis buffer, and fractions were analyzed by Western blotting. […]

[6] = test system: MN; assay: Analytical SEC of Mif2 variants with MN; format: binding, budding yeast; conditions: 10 μM, 1 h at 4°C
Description: as §1, §2, §3

Mif2‐ΔN: Mif2 lacking the N-terminus (Mif2-D1-35)
viability / phenotype [1]: viable
kinetochore signal localization [2]: closely associated with spindle pole bodies
viability ([3]; ctf3 or chl4 deletion backgrounds): lethality
rescue of Mif2-FRB lethality ([3]; ctf19Δ background): not Mif2‐ΔN, was able to rescue the lethality
effect of overexpression on growth [4]: tolerated well and did not greatly impact yeast viability

B1: Mif2‐ΔsigAT: Mif2 variant that lacks signature motif and AT-hook (protein)
chain: MDYMKLGLKSRKTGIDVKQDIPKDEYSMENIDDFFKDDETSLISMRRKSRRKSSLFLPSTLNGDTKNVLPPFLQSYKSQDDEVVQSPSGKGDGSRRSSLLSHQSNFLSPANDFEPIEEEPEQEENDIRGNDFATPITQKLSKPTYKRKYSTRYSLDTSESPSVRLTPDRITNKNVYSDVPDLVADEDDDDRVNTSLNTSDNALLEDELEDDGFIPESEEDGDYIESDSSLDSGSDSASDSDGDNTYQEVEEEAEVNTNDNEDDYIRRQASDVVRTDSIIDRNGAKENLIPEDPNEDIIERIESGGIENGEWLKHGILEANVKISDTKEETKDEIIAFAPNLSQTEQVKDTKDENFALEIMFDKHKEYFASGILKLPAISGQKKLSNSFRTYITFHVIQGIVEVTVCKNKFLSVKGSTFQIPAFNEYAIANRGNDEAKMFFVQVTVSEDANDDNDKELDSTFDTFG
modifications: left off: Flag, C-terminal, kept
notes: Mif2 variant that lacks signature motif and AT-hook
co-purification of MN [5]: able to co‐purify a significantly increased amount of MN
binding to MN by SEC [6]: increased binding to MN as compared to Mif2‐wt
effect of overexpression on growth [4]: impairs growth
